This experiment concerns T1, Acetes chinensis PPO (polyphenol oxidase).
T1 construct: native enzyme purified from fresh shrimp (ammonium sulphate, DEAE, Phenyl-Sepharose HP); single SDS-PAGE band about 75 kDa
The experiment in a line: absorbance at […] nm, Lineweaver-Burk. Particulars: 0.05 mol/L phosphate buffer pH 7.2, 40 °C, 40 min; Figure 2 caption names pyrocatechol, text names L-Dopa. The experiment is classed as biochemical.

Molecules are shown by their SMILES.

For `N[C@@H](Cc1ccc(O)c(O)c1)C(=O)O` [L-dopa], the Michaelis constant (Km) stood at 846 µM.

These data come from publication PMC8709206, “Study on Purification and Characterization of Polyphenol Oxidase from Acetes chinensis” (Molecules, 2021).
